Data from patent US5824652A, “Heterocyclic acyldipeptides, processes for the preparation thereof and pharmaceutical compositions containing the same” (Univerza v Ljubljani, Fakulteta za naravoslovje in …, priority 1993, dated 1998).

Tests used:
[1] = Pyrogenous activity according to the method of USPXXII; format: in vivo
Description: The pyrogenous activity was determined according to the method of USPXXII.

lymphocytes B = experiment: Determination of haemolytic plaques for the assessment of the maturation of lymphocytes B; format: in vivo; settings: mice immunized with sheep erythrocytes, n = 5
Description: A suspension of sheep erythrocytes (Institute of Microbiology, Faculty of Medicine, Ljubljana, Slovenia) in physiological saline (10^8 /ml) was used for the immunization. […] Romurtide was dissolved in a solution of D-manitol (45 mg/ml; Nopia) and compound 1 was dissolved in physiological saline. The immunization was completed on day 5 after the administration of sheep erythrocytes and the mice were sacrificed. Their spleens were removed and homogenized in Gibco 199 medium. The lymphocytes were separated on the Ficol separating medium (Pharmacia, Uppsala, Sweden). After repeated rinsing with Gibco 199 medium, the cells were resuspended in RPMI 1640 nutrient medium with added 10% of foetal calf serum and streptomycin. To 50 μl of the cell suspension, 450 μl of trypan blue were added and the cells were counted in Neubauer's chamber. The number of lymphocytes per ml of the cell suspension was calculated. To 100 μl of the diluted cell suspension, there were added 200 μl of the RPMI 1640 nutrient medium, 50 μl of a 10% suspension of sheep erythrocytes and 50 μl of guinea pig complement (Institute for Microbiology, Faculty of Medicine, Ljubljana, Slovenia). The reaction mixture (RM) was put into the prepared chambers on the slide, the chambers were sealed with white wax and incubated at 37° C. for 60 minutes. After the completion of the incubation, the plaques were counted under microscope. The number of plaques per 1×10^6 cells was calculated according to the following equations: [formula] In the table, the values are presented as stimulation indexes (number of plaques in the test group/number of plaques in the control group).

[2] = Toxicity, average lethal dose (LD50); format: in vivo; settings: male mice, intravenous application
Candida albicans = experiment: Immunorestoration test (cyclophosphamide-immunosuppressed mice challenged with Candida albicans); format: in vivo; settings: for Number of survivals: Candida albicans challenge, n = 10
Description: The test substance or a vehicle was administered i.p. to groups of 10 mice on days 1, 3 and 5 of the experiment in four different doses (0.1, 1, 10 and 100 mg/kg). Cyclophosphamide (30 mg/kg) was administered p.o. on days 2, 4, and 6. One day after the last immunosuppressant (cyclophosphamide) dose, the mice were challenged with a suspension of Candida albicans sufficient to result in the mortality of a predominant number of the animals.

B-16 melanoma = experiment: Antitumor activity, solid subcutaneous B-16 melanoma; format: in vivo, C57B1/6 strain mice; settings: 10 mg/kg on five consecutive days, started 24 hours after tumor induction; for Animals with complete regression of tumors: still without tumors on day 20
Description: Solid subcutaneous B-16 melanoma were used on C57B1/6 strain mice of 8 to 10 weeks. The tumors were implanted by injection of 3×10^5 live tumor cells into the left lower abdomen of mice. The suspension of tumor cells was prepared in ENAM (Eagle's Minimal Essential Medium, Sigma Chemical Co., St. Louis, Mo., U.S.A.) enriched with 2% foetal calf serum (FCS, Sigma). Tumor cells (B-16 melanoma tumor cells, clone F1, ATCC, Rockville, Md.) for implantation into test animals were grown in vitro in a cell culture. The application of the test substances was started 24 hours after the tumor induction. The test substance was injected five times on five consecutive days in a dose of 10 mg/kg, the dose of Nopia was 1 mg/kg of test animals daily (a fivefold human dose). The antitumor activity of the active compounds was monitored by recording the tumor emergence, daily measuring the tumor diameters and calculating the tumour volumes.

[3] = 0.1 mg/kg × 3 i.p. + cyclophosphamide 30 mg/kg p.o.
[4] = 1 mg/kg × 3 i.p. + cyclophosphamide 30 mg/kg p.o.
[5] = 10 mg/kg × 3 i.p. + cyclophosphamide 30 mg/kg p.o.
[6] = 100 mg/kg × 3 i.p. + cyclophosphamide 30 mg/kg p.o.

With `C[C@H](NC(=O)C1(C)Oc2ccccc2N(C)C1=O)C(=O)N[C@H](CCC(=O)O)C(N)=O` (stereo partly drawn) [Compound 1, N-(3,4-Dihydro-2,4-dimethyl-3-oxo-2H-1,4-benzoxazine-2-carbonyl)-L-alanyl-D-isoglutamine] the Pyrogenous activity [1] was “did not show any pyrogenous activity”, the “Stimulation index (number of plaques in the test group/number of plaques in the control group)” value (lymphocytes B; dose 1 μ/mouse) was 3.64 and the “Stimulation index (number of plaques in the test group/number of plaques in the control group)” value (lymphocytes B; dose 10 μ/mouse) was 5.32. For the same compound, the “average lethal dose (LD50)” value [2] was greater than 250 mg/kg, the Number of survivals (Candida albicans; [3]) was 6 and the Number of survivals (Candida albicans; [4]) was 6. For the same compound, the Number of survivals (Candida albicans; [5]) was 7, the Number of survivals (Candida albicans; [6]) was 6 and the “Dose achieving the immunorestorative effect, times lower in comparison with the related compounds of U.S. Pat. No. 5,231,216” value (Candida albicans; comparison across i.p. doses 0.1-100 mg/kg) was “up to 100 times”. The “Immunorestorative activity compared with romurtide” value (Candida albicans; mouse, in vivo) was “superior to that of the MDP analogue romurtide”.
With `C[C@H](NC(=O)C1(C)Oc2ccccc2N(C)C1=O)C(=O)N[C@H](CCC(=O)O)C(N)=O` (stereo partly drawn) [Compound 4, (2S)-N-(3,4-dihydro-2,4-dimethyl-3-oxo-2H-1,4-benzoxazine-2-carbonyl)-L-alanyl-D-isoglutamine] the “Animals with complete regression of tumors” value (B-16 melanoma) was “one of nine animals”.
`CCCCCCCCCCCC(=O)N[C@@H]1CCCC[C@H]1OCC(=O)N[C@@H](C)C(=O)N[C@H](CCC(=O)O)C(N)=O` [U.S. 5,231,216, N[trans2-(2dodecanoylaminocyclohexyloxy)acetyl)L-alanyl-D-isoglutamine, reference compound] showed a Number of survivals (Candida albicans; [3]) of 2, a Number of survivals (Candida albicans; [4]) of 5 and a Number of survivals (Candida albicans; [5]) of 6. For the same compound, the Number of survivals (Candida albicans; [6]) was 6.
In the case of `C[C@@H](NC(=O)C1(C)Oc2ccccc2NC1=O)C(=O)N[C@H](CCC(=O)O)C(N)=O` (stereo partly drawn) [Compound 2, (2R)-N-(3,4-dihydro-2-methyl-3-oxo-2H-1,4-benzoxazine-2-carbonyl)-L-alanyl-D-isoglutamine], the “Animals with complete regression of tumors” value (B-16 melanoma) was “two of eight animals”.
For `C[C@H](NC(=O)C1(C)Oc2ccccc2NC1=O)C(=O)N[C@H](CCC(=O)O)C(N)=O` (stereo partly drawn) [Compound 3, N-(3,4-dihydro-2-methyl-3-oxo-2H-1,4-benzoxazine-2-carbonyl)-L-alanyl-D-isoglutamine], the “Animals still without tumors on day 20 after the tumor induction” value (B-16 melanoma) was “three animals of nine”.
With `CCCCCCCCCCCCCCCCCC(=O)NCCCC[C@H](NC(=O)CC[C@@H](NC(=O)[C@H](C)NC(=O)[C@@H](C)O[C@H]1[C@H](O)[C@@H](CO)OC(O)[C@@H]1NC(C)=O)C(N)=O)C(=O)O` (stereo partly drawn) [Romurtide, romurtide, reference compound] the “Stimulation index (number of plaques in the test group/number of plaques in the control group)” value (lymphocytes B; dose 1 μ/mouse) was 1.06, the “Stimulation index (number of plaques in the test group/number of plaques in the control group)” value (lymphocytes B; dose 10 μ/mouse) was 1.92 and the Number of survivals (Candida albicans; [3]) was 5.
`O=P1(N(CCCl)CCCl)NCCCO1` (stereo not drawn) [Cyclophosphamide, reference compound] gave a Number of survivals (Candida albicans; cyclophosphamide alone 30 mg/kg × 3 p.o.) of 3.
